Results: patent US12629415B2, “Vaccine adjuvants” (THE PROVOST, FELLOWS, FOUNDATION SCHOLARS, AND THE OTHER …, priority 2018, dated 2026)
“Also recorded” adds a separate entry of the source.

Legend:
PBMCs or CBMCs [1] = test: IFNα sandwich ELISA on supernatants; assay type: cell-based, human; conditions: CBMCs compared with PBMCs; 8 or 24 h
Description: (§1) Poly(I:C) (5 μg/ml) (Invivogen), Poly(dA:dT) (5 μg/ml) (Sigma-Aldrich), 2′3′ cGAMP (10 μg/ml), 5′ triphosphate double stranded RNA (5′ ppp dsRNA) (2.5 μg/ml) and HSV-60 (2 μg/ml) (all from Invivogen) were transfected into PBMCs or CBMCs using TransIT-X2 (Mirus).
(§2) Measurement of cytokines—HEK Blue TNFα/IFNα/β Assays were performed as per the manufacturer's (Invivogen) instructions using Quanti-Blue Detection Reagent. SEAP levels were determined using a spectrophotometer plate reader at 630 nm. IFNα (3425-1H-6, Mabtech) and IP-10 (DY266, R&D Systems) were detected by sandwich ELISA. IFNα ELISA used pan specific IFNα antibodies, which allows detection of IFNα subtypes 1/13, 2, 4, 5, 6, 7, 8, 10, 14, 16 and 17. BioLegend LEGENDplex™ Human Inflammation Panel (13-plex) was carried out as per manufacturer's (Biolegend) instructions to determine levels of IFNγ, IL-10, IL-12p70 and IL-23. A BD LSR Fortessa cell analyser was used to acquire samples and BioLegend LEGENDplex™ software was used for analysis.

PBMCs or CBMCs [2] = test: Quantitative RT-PCR of TNFα, IFNα and CXCL10 mRNA; assay type: cell-based, human; conditions: CBMCs vs PBMCs
Description: as §1
Quantitative RT-PCR—Total RNA from PBMCs or CBMCs was extracted using trizol extraction as previously described (16) and was reverse transcribed using MMLV Reverse Transcriptase (Promega) according to the manufacturer's protocol. This cDNA served as template for amplification of target genes, along with the ‘housekeeping’ gene βActin, by real-time PCR with SensiFast SYBR Green (Bioline) to determine the relative amounts of CXCL10, IFNα and TNFα mRNA. The ABI 7900HT system (Applied Biosystems) was used for real-time PCR, and the cycling threshold method (2^−(ΔΔCt)) was used for relative quantification by comparative method after normalization to βActin expression.

PBMCs or CBMCs [3] = test: CXCL10 (IP-10) ELISA; assay type: cell-based, human; conditions: CBMCs compared with PBMCs
Description: as §1, §2

bovine PBMCs [4] = test: Bovine IFN-γ ELISA on stimulated PBMCs; assay type: cell-based, cattle; conditions: 72 hours; for IFN-γ secretion by ConA stimulated PBMCs from 2 month old calves: ConA 1 μg/ml, polydA:dT 1 μg/ml; for IFN-γ secretion by ConA stimulated bovine PBMCs: calves <1 year old, ConA 1 μg/ml with or without LPS 100 pg/ml; for IFN-γ secretion by PBMCs from neonatal calves, time course: same 5 calves from 1 to 5 months of age, ConA with or without LPS
Description: (§3) Bovine peripheral blood mononuclear cells were isolated from whole blood samples collected in 9m1 vacutainers containing Heparin anticoagulant. PBMCs were spun and separated using leucosep tubes (Cruinn) and a density gradient histopaque 1077 (Sigma-Aldrich) at a speed of 1200 g for 20 minutes. Red blood cell contamination was eliminated using sterile 0.25% sodium chloride (Baxter) as a lysis buffer. The cells were subsequently washed twice in PBS at a speed of 600 g for 10 minutes to remove impurities.
(§4) Cells were counted using a haemocytometer, microscope and trypan blue (Sigma Aldrich) and seeded at appropriate densities in tissue culture plates (Cruinn) containing media. The cells were incubated at 37° C. at 5% CO2 treated within hours of plating to avoid unwanted cell death.
When analysing the effects of IL-1β on T cell activation, cells were pre-treated with 250 μg/ml of IL-1 receptor antagonist (IL-1Ra) 40 minutes before stimulation with IL-1β (25 ng/ml). Cells were subsequently stimulated with concanavalin A (1 μg/ml) 1 hour after addition of IL-1β. Similarly, when analysing the effects of polydA:dT on T cell activation, cells were stimulated with polydA:dT (1 μg/ml) 1 hour before ConA treatment (1 μg/ml). LPS (100 pg/ml) primed cells were incubated with YVAD-FMK (10 μm), an inhibitor specific for caspase-1. After 40 minutes, the cells were stimulated with alum (50 μg/ml) for 24 hours and supernatants were then harvested and analysed by ELISA for IL-1β
(§5) Capture antibodies (50 μl/well), diluted in the appropriate buffers, were dispensed into the wells of high binding plates (Greiner Bio-One) and incubated overnight at room temperature or 4° C. For analysis of IL-17, the ELISA plates were pre-coated with capture antibody by the manufacturing before delivery. The wells were washed with PBS/Tween 3 times and the plates were then incubated with 150 μl of blocking buffer for 1 hour at room temperature. The plates were washed again before supernatant (neat or diluted) and recombinant standards were added for 1 hour at room temperature. Following this, the plates were washed and 50 μl of detection antibody was added to the wells for a period of 1 or 2 hours at room temperature. After washing, 50 μl diluted streptavidin-HRP was added to the plate for between 30 minutes and 1 hour. After the final wash, 50 μl of 3,3′-, 5,5′-Tetramethylbenzidine (TMB) substrate was added and the plates were incubated in the dark. The reaction was stopped by addition of 1M sulphuric acid and the absorbance readings were measured at 450 nm using a microtitre plate reader. The cytokine concentrations were calculated using a linear regression standard curve from recombinant cytokines of known concentration. Skanit™ software was used to estimate values.

bovine PBMCs [5] = test: Bovine IL-1β ELISA on stimulated PBMCs; assay type: cell-based, cattle; conditions: for IL-1β secretion by bovine PBMCs in the absence of LPS priming: polydA:dT 5, 2 or 1 μg/ml or alum 50 μg/ml
Description: as §3, §4
[…] This concentration was selected after testing effects of a range of different LPS concentrations ranging from 1 pg/ml-1 μg/ml. […] Similar to LPS, adjuvant concentrations were selected after testing multiple different doses. After stimulation, the cells were cultured for an additional 24 hours. Supernatants were harvested and stored at −20° C. for further analysis.
as §5

bovine PBMCs [6] = test: Western blot of pro-IL-1β in bovine PBMC lysates; assay type: cell-based, cattle
Description: Supernatants were collected after 24 hours and IL-1β was detected by ELISA. Human PBMCs were stimulated for 24 hours with polydA:dT (5 μg/ml, 2 μg/ml or 1 μg/ml) or alum (50 μg/ml) alone or with LPS (100 pg/ml) (C & D). Supernatants were collected and IL-1β was detected by ELISA. […] Cell lysates were harvested and pro-IL-1β was detected by western blot. PBMCs were stimulated with media or polydA:dT (1 μg/ml) for 6 hours. Cells were lysed and RNA was harvested and used for analysis by RT-PCR (F). Results are mean+/− SEM for 6 calves tested individually in triplicate. For human analysis, results are mean+/− SEM for 6 humans tested individually in triplicate The PPIA gene was used for normalization of gene expression.

poly(deoxyadenylic-thymidylic) acid [Poly(dA:dT)]
IFNα secretion (ELISA) (PBMCs or CBMCs [1]): equivalent or enhanced CNA sensor responses in neonates compared to adults | CXCL10 mRNA expression (PBMCs or CBMCs [2]; 4 h): no inhibition of transcription | IFNα mRNA expression (PBMCs or CBMCs [2]; 24 h): no inhibition of transcription | TNFα mRNA expression (PBMCs or CBMCs [2]; CNA 4 h, LPS 2 h): no significant difference in TNFα levels | CXCL10 protein secretion (PBMCs or CBMCs [3]): no significant difference in the CXCL10 response between PBMCs or CBMCs | IFN-γ secretion by ConA stimulated PBMCs from 2 month old calves (bovine PBMCs [4]; listed as PolydA:dT): drives enhanced IFN-γ secretion in calves aged <1 year old | IFN-γ secretion by ConA stimulated PBMCs from 2 month old calves (bovine PBMCs [4]; listed as poly(dA:dT)): strongly enhanced IFN-γ production | IFN-γ secretion by ConA stimulated bovine PBMCs (bovine PBMCs [4]): promotes type 1 interferon dependent enhancement of interferon gamma production in PBMCs | IFN-γ secretion by ConA stimulated bovine PBMCs (bovine PBMCs [4]; listed as Poly (deoxyadenylic-thymidylic) acid): promotes type 1 interferon dependent enhancement of interferon gamma production in PBMCs | IFN-γ secretion by ConA stimulated bovine PBMCs (bovine PBMCs [4]; listed as poly (dA:dT)): strongly enhanced IFN-γ production by PBMCs from adult (8 months old) animals | IFN-γ secretion by ConA stimulated bovine PBMCs (bovine PBMCs [4]; listed as polydA:dT): increase in IFN-γ secretion; also recorded: increased capacity to secrete IFN-γ in response to polydA:dT, although the difference was only significant when cells were primed with LPS | IFN-γ secretion by PBMCs from neonatal calves, time course (bovine PBMCs [4]; listed as PolydA:dT): drives enhanced IFN-γ by cells from neonatal calves | IFN-γ secretion by PBMCs from neonatal calves, time course (bovine PBMCs [4]; listed as polydA:dT): overcomes the deficiency in interferon gamma production in neonatal cattle; also recorded: significantly enhanced in response to polydA:dT; also recorded: most evident in the first 2 months of life after which the enhancement was not statistically significant; also recorded: significant increase in IFN-γ secretion at 1 and 2 months in the presence or absence of LPS; also recorded: ability to drive enhanced IFN-γ from PBMCs of calves aged 1-2 months | IL-1β secretion by bovine cells (priming not given) (bovine PBMCs [5]): enhanced by polydA:dT; also recorded: enhanced IL-1β secretion from bovine cells; also recorded: enhances IL-1β secretion in a NLRP3 independent manner; also recorded: robust driver of IL-1β secretion and IL-18 expression in cattle | IL-1β secretion by PBMCs from 1 month old calves following LPS priming (bovine PBMCs [5]; 5 neonatal calves, 24 hours): PBMCs from all 5 neonates secreted IL-1β | IL-1β secretion by PBMCs from neonatal (1 month old) calves in the absence of LPS priming (bovine PBMCs [5]; 5 neonatal calves, 24 hours): can secrete IL-1β in response to polydA:dT without LPS priming; also recorded: secreted processed IL-1β following polydA:dT stimulation | IL-1β secretion by bovine PBMCs primed with LPS (bovine PBMCs [5]; LPS 100 pg/ml, polydA:dT 5, 2 or 1 μg/ml, 24 hours): secreted IL-1β when stimulated with polydA:dT at various concentrations | IL-1β secretion by PBMCs from calves at 2 months of age (bovine PBMCs [5]; absence or presence of LPS, 24 hours): processed IL-1β was present in supernatants | IL-1β concentrations, presence versus absence of LPS (bovine PBMCs [5]; bovine PBMCs, 24 hours): no significant difference in IL-1β concentrations | IL-1β secretion by bovine PBMCs in the absence of LPS priming (bovine PBMCs [5]; 24 hours, listed as PolydA:dT): capable of driving IL-1β secretion in the absence of priming with LPS | IL-1β secretion by bovine PBMCs in the absence of LPS priming (bovine PBMCs [5]; 24 hours, listed as polydA:dT): all calves secreted processed IL-1β | pro-IL-1β expression (bovine PBMCs [6]; 6 hours, data not shown): enhances pro-IL-1β expression after 6 hours | pro-IL-1β (western blot) (bovine PBMCs [6]; 16 hours, with or without LPS 100 pg/ml): pro-IL-1β was evidently expressed in cells stimulated with polydA:dT in the absence of LPS
